Reference: PubChem BioAssay (NCI)
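How tested: cells in 96-well plates exposed to compound for 48 hours at five concentrations. TGI: concentration producing complete growth inhibition.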

What was measured:
Assay in all cases: inhibition of tumour cell growth, NCI panel, 48 h
786-0 renal = tested on: 786-0 renal
SNB-19 CNS = tested on: SNB-19 CNS
SK-OV-3 ovarian = tested on: SK-OV-3 ovarian
CCRF-CEM leukemia = tested on: CCRF-CEM leukemia
M14 melanoma = tested on: M14 melanoma
RXF 393 renal = tested on: RXF 393 renal
SF-268 CNS = tested on: SF-268 CNS
SW-620 colon = tested on: SW-620 colon
TK-10 renal = tested on: TK-10 renal
MDA-N = tested on: MDA-N
MOLT-4 leukemia = tested on: MOLT-4 leukemia
NCI-H23 lung = tested on: NCI-H23 lung
IGROV1 ovarian = tested on: IGROV1 ovarian
K-562 leukemia = tested on: K-562 leukemia
T-47D breast = tested on: T-47D breast
UO-31 renal = tested on: UO-31 renal
SNB-75 CNS = tested on: SNB-75 CNS
MDA-MB-435 = tested on: MDA-MB-435
UACC-257 melanoma = tested on: UACC-257 melanoma
MALME-3M melanoma = tested on: MALME-3M melanoma
OVCAR-3 ovarian = tested on: OVCAR-3 ovarian
SK-MEL-2 melanoma = tested on: SK-MEL-2 melanoma
MCF7 breast = tested on: MCF7 breast
NCI/ADR-RES ovarian = tested on: NCI/ADR-RES ovarian
EKVX NSCLC = tested on: EKVX NSCLC
CAKI-1 renal = tested on: CAKI-1 renal
OVCAR-4 ovarian = tested on: OVCAR-4 ovarian
A498 renal = tested on: A498 renal
ACHN renal = tested on: ACHN renal
OVCAR-8 ovarian = tested on: OVCAR-8 ovarian
PC-3 prostate = tested on: PC-3 prostate
HL-60(TB) leukemia = tested on: HL-60(TB) leukemia
NCI-H460 lung = tested on: NCI-H460 lung
HCT-116 colon = tested on: HCT-116 colon
U251 CNS = tested on: U251 CNS
DU-145 prostate = tested on: DU-145 prostate
SK-MEL-28 melanoma = tested on: SK-MEL-28 melanoma
HOP-62 NSCLC = tested on: HOP-62 NSCLC
HCC-2998 colon = tested on: HCC-2998 colon
HS 578T breast = tested on: HS 578T breast
KM12 colon = tested on: KM12 colon
SK-MEL-5 melanoma = tested on: SK-MEL-5 melanoma
SN12C renal = tested on: SN12C renal
UACC-62 melanoma = tested on: UACC-62 melanoma
BT-549 breast = tested on: BT-549 breast
RPMI-8226 leukemia = tested on: RPMI-8226 leukemia
COLO 205 colon = tested on: COLO 205 colon
OVCAR-5 ovarian = tested on: OVCAR-5 ovarian
LOX IMVI melanoma = tested on: LOX IMVI melanoma
MDA-MB-231 breast = tested on: MDA-MB-231 breast
A549 NSCLC = tested on: A549 NSCLC
HT29 colon = tested on: HT29 colon
NCI-H522 lung = tested on: NCI-H522 lung
HCT-15 colon = tested on: HCT-15 colon
SF-295 CNS = tested on: SF-295 CNS
HOP-92 NSCLC = tested on: HOP-92 NSCLC
SR leukemia = tested on: SR leukemia
NCI-H226 lung = tested on: NCI-H226 lung

For COc1cc(/C=C2\N=C(c3ccccc3)N(c3ccc(C(=O)c4ccccc4)cc3N3C(=O)/C(=C/c4cc(OC)c(OC)c(OC)c4)N=C3c3ccccc3)C2=O)cc(OC)c1OC, the TGI (786-0 renal) was over 100 µM, the TGI (SNB-19 CNS) was over 100 µM and the TGI (SK-OV-3 ovarian) was 55.4 µM. For the same molecule, the TGI (CCRF-CEM leukemia) was 39.8 µM, the TGI (M14 melanoma) was 33.4 µM and the TGI (RXF 393 renal) was 34.9 µM. For the same molecule, the TGI (SF-268 CNS) was over 100 µM, the TGI (SW-620 colon) was 40.7 µM and the TGI (TK-10 renal) was 42.3 µM. The TGI (MDA-N) was 14.9 µM, the TGI (MOLT-4 leukemia) was 39.6 µM and the TGI (NCI-H23 lung) was 41.6 µM. The TGI (IGROV1 ovarian) was over 100 µM, the TGI (K-562 leukemia) was 68.7 µM and the TGI (T-47D breast) was 26.4 µM. It also gave a TGI (UO-31 renal) of 40.3 µM, a TGI (SNB-75 CNS) of 35.6 µM and a TGI (MDA-MB-435) of 18.5 µM. The TGI (UACC-257 melanoma) was 33.4 µM, the TGI (MALME-3M melanoma) was 41.3 µM and the TGI (OVCAR-3 ovarian) was 16.6 µM. The TGI (SK-MEL-2 melanoma) was 25.1 µM, the TGI (MCF7 breast) was 42.1 µM and the TGI (NCI/ADR-RES ovarian) was 34.1 µM. The TGI (EKVX NSCLC) was 76.7 µM, the TGI (CAKI-1 renal) was over 100 µM and the TGI (OVCAR-4 ovarian) was over 100 µM. For the same molecule, the TGI (A498 renal) was 43 µM, the TGI (ACHN renal) was 66 µM and the TGI (OVCAR-8 ovarian) was 73.2 µM. The TGI (PC-3 prostate) was 46 µM, the TGI (HL-60(TB) leukemia) was 15.5 µM and the TGI (NCI-H460 lung) was 23.8 µM. It also gave a TGI (HCT-116 colon) of 52.2 µM, a TGI (U251 CNS) of over 100 µM and a TGI (DU-145 prostate) of 40.3 µM. It also gave a TGI (SK-MEL-28 melanoma) of 65.8 µM, a TGI (HOP-62 NSCLC) of over 100 µM and a TGI (HCC-2998 colon) of 11.2 µM. The TGI (HS 578T breast) was 74.8 µM, the TGI (KM12 colon) was 48.9 µM and the TGI (SK-MEL-5 melanoma) was 21.2 µM. The TGI (SN12C renal) was 89.1 µM, the TGI (UACC-62 melanoma) was 24.7 µM and the TGI (BT-549 breast) was 66.4 µM. The TGI (RPMI-8226 leukemia) was over 100 µM, the TGI (COLO 205 colon) was 30 µM and the TGI (OVCAR-5 ovarian) was over 100 µM. For the same molecule, the TGI (LOX IMVI melanoma) was 39.2 µM, the TGI (MDA-MB-231 breast) was 54 µM and the TGI (A549 NSCLC) was 71.6 µM. It also gave a TGI (HT29 colon) of 92 µM, a TGI (NCI-H522 lung) of 26.1 µM and a TGI (HCT-15 colon) of 39.2 µM. It also gave a TGI (SF-295 CNS) of 55.9 µM and a TGI (HOP-92 NSCLC) of over 100 µM.

Molecule COc1cccc(C2c3cc4c(cc3OC(N3CCOCC3)C2C)OCO4)c1 (stereo not given) has a TGI (SNB-19 CNS) of over 100 µM, a TGI (SK-OV-3 ovarian) of over 100 µM and a TGI (M14 melanoma) of 71 µM. The TGI (SF-268 CNS) was 85.5 µM, the TGI (SW-620 colon) was 16.7 µM and the TGI (MDA-N) was 10.7 µM. It also gave a TGI (MOLT-4 leukemia) of 17.6 µM, a TGI (IGROV1 ovarian) of over 100 µM and a TGI (K-562 leukemia) of over 100 µM. It also gave a TGI (T-47D breast) of over 100 µM, a TGI (UO-31 renal) of 43.4 µM and a TGI (SNB-75 CNS) of over 100 µM. For the same molecule, the TGI (UACC-257 melanoma) was over 100 µM, the TGI (MALME-3M melanoma) was over 100 µM and the TGI (OVCAR-3 ovarian) was 38.6 µM. The TGI (SK-MEL-2 melanoma) was 83.6 µM, the TGI (MCF7 breast) was 46.4 µM and the TGI (NCI/ADR-RES ovarian) was over 100 µM. The TGI (EKVX NSCLC) was 87.7 µM, the TGI (OVCAR-4 ovarian) was 61 µM and the TGI (ACHN renal) was over 100 µM. The TGI (OVCAR-8 ovarian) was over 100 µM, the TGI (PC-3 prostate) was 44.4 µM and the TGI (NCI-H460 lung) was 37.7 µM. It also gave a TGI (SR leukemia) of over 100 µM, a TGI (HCT-116 colon) of 34.9 µM and a TGI (DU-145 prostate) of over 100 µM. For the same molecule, the TGI (HOP-62 NSCLC) was 60.8 µM, the TGI (HS 578T breast) was 60.1 µM and the TGI (SK-MEL-5 melanoma) was 15.6 µM. It also gave a TGI (SN12C renal) of over 100 µM, a TGI (BT-549 breast) of 22.4 µM and a TGI (RPMI-8226 leukemia) of over 100 µM. It also gave a TGI (COLO 205 colon) of 29.8 µM, a TGI (OVCAR-5 ovarian) of 71.4 µM and a TGI (LOX IMVI melanoma) of 18.1 µM. It also gave a TGI (MDA-MB-231 breast) of over 100 µM, a TGI (NCI-H226 lung) of 43.4 µM and a TGI (A549 NSCLC) of 51.9 µM. It also gave a TGI (HT29 colon) of 25 µM, a TGI (NCI-H522 lung) of 75.3 µM and a TGI (HCT-15 colon) of over 100 µM. For the same molecule, the TGI (SF-295 CNS) was 35.7 µM and the TGI (HOP-92 NSCLC) was 85.3 µM.
